Data published in ChEMBL document CHEMBL1201862, “PubChem BioAssay data set” (2004).
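Assay format: 96-well plates, 48-hour exposure. GI50 marks 50% less growth.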 Active and inactive are the calls of the source. No stated cut-off is given here; in the data, active = GI50 up to about 1.1 µM and inactive = higher.

Columns and labels:
Experiment in all cases: NCI anticancer screen, dose series, 48 h
HT-29 = test system: HT-29
SK-MEL-5 = test system: SK-MEL-5
K562 = test system: K562
M14 = test system: M14
NCI-H226 = test system: NCI-H226
ACHN = test system: ACHN
OVCAR-4 = test system: OVCAR-4
DU-145 = test system: DU-145
CAKI-1 = test system: CAKI-1
COLO 205 = test system: COLO 205
CCRF-CEM = test system: CCRF-CEM
OVCAR-3 = test system: OVCAR-3
NCI-H460 = test system: NCI-H460
OVCAR-8 = test system: OVCAR-8
NCI-H23 = test system: NCI-H23
SNB-19 = test system: SNB-19
RXF 393 = test system: RXF 393
IGROV-1 = test system: IGROV-1
HL-60 = test system: HL-60
A498 = test system: A498

| SMILES | GI50 (HT-29) | GI50 (SK-MEL-5) | GI50 (K562) | GI50 (M14) | GI50 (NCI-H226) | GI50 (ACHN) | GI50 (OVCAR-4) | GI50 (DU-145) | GI50 (CAKI-1) | GI50 (COLO 205) | GI50 (CCRF-CEM) | GI50 (OVCAR-3) | GI50 (NCI-H460) | GI50 (OVCAR-8) | GI50 (NCI-H23) | GI50 (SNB-19) | GI50 (RXF 393) | GI50 (IGROV-1) | GI50 (HL-60) | GI50 (A498) |
| --- | --- | --- | --- | --- | --- | --- | --- | --- | --- | --- | --- | --- | --- | --- | --- | --- | --- | --- | --- | --- |
| C/C(=C\c1ccccc1)n1c(=O)cc(C)n1C | > 100 µM (inactive) | > 100 µM (inactive) | > 100 µM (inactive) | > 100 µM (inactive) | > 100 µM (inactive) | > 100 µM (inactive) | > 100 µM (inactive) | > 100 µM (inactive) | > 100 µM (inactive) | > 100 µM (inactive) | > 100 µM (inactive) | > 100 µM (inactive) | > 100 µM (inactive) | > 100 µM (inactive) | > 100 µM (inactive) | > 100 µM (inactive) | > 100 µM (inactive) | > 100 µM (inactive) |  |  |
| CN(C)CN(C)c1nc(N(C)C)nc(N(C)CN(C)C)n1 | 57.8 µM (inactive) | 51.1 µM (inactive) | 30.8 µM (inactive) | 36.7 µM (inactive) | > 100 µM (inactive) | 45.4 µM (inactive) | 42.4 µM (inactive) |  | > 100 µM (inactive) | 27.8 µM (inactive) | 25.7 µM (inactive) | > 100 µM (inactive) | 57.3 µM (inactive) | 27.9 µM (inactive) | 27.2 µM (inactive) | > 100 µM (inactive) | 19.5 µM (inactive) | > 100 µM (inactive) | 17 µM (inactive) | > 100 µM (inactive) |
| Cc1cc([N+](=O)[O-])ccc1/N=N/C(=O)NNc1ccc([N+](=O)[O-])cc1C | 27 µM (inactive) | 13.6 µM (inactive) | 19.5 µM (inactive) | 13.6 µM (inactive) | 15.3 µM (inactive) | 15.8 µM (inactive) | 14.1 µM (inactive) | 16.5 µM (inactive) | 14.8 µM (inactive) |  | 20.1 µM (inactive) | 18.8 µM (inactive) | 17.6 µM (inactive) | 14.7 µM (inactive) | 17.3 µM (inactive) | 15.6 µM (inactive) |  | 19.6 µM (inactive) | 20 µM (inactive) | 13.6 µM (inactive) |
| Nc1nc(Cl)cc(NCCCCO)n1 | > 100 µM (inactive) | > 100 µM (inactive) | > 100 µM (inactive) | > 10 µM (inactive) | > 100 µM (inactive) | > 100 µM (inactive) | > 100 µM (inactive) |  |  | > 100 µM (inactive) | > 100 µM (inactive) | > 10 µM (inactive) | > 100 µM (inactive) | > 100 µM (inactive) | > 100 µM (inactive) | > 100 µM (inactive) | > 100 µM (inactive) | > 100 µM (inactive) | > 100 µM (inactive) | > 100 µM (inactive) |
| C[C@]12CCC3[C@@H](C[C@H]4OC(=O)[C@@]35CCC(=O)C=C45)C1CCC2=O (some centres not stated) | > 100 µM (inactive) | > 100 µM (inactive) | > 100 µM (inactive) | > 100 µM (inactive) | > 100 µM (inactive) | > 100 µM (inactive) |  |  |  | > 100 µM (inactive) | > 100 µM (inactive) | > 100 µM (inactive) | > 100 µM (inactive) | > 100 µM (inactive) | > 100 µM (inactive) | > 100 µM (inactive) | > 100 µM (inactive) | > 100 µM (inactive) | > 100 µM (inactive) |  |
| Cc1ccc(NC(=O)C2C(=O)N(c3ccc(C)c(C)c3)C(=O)/C2=N\NC(N)=S)cc1C (configuration not stated) | 78 µM (inactive) |  | 60.7 µM (inactive) | > 100 µM (inactive) | > 100 µM (inactive) | > 100 µM (inactive) |  |  | > 100 µM (inactive) |  | 47.4 µM (inactive) | > 100 µM (inactive) |  |  | > 100 µM (inactive) | 29.6 µM (inactive) |  | 96.4 µM (inactive) | > 100 µM (inactive) |  |
| O=P(Nc1ccc(Cl)cc1)(Oc1ccccc1)N(CCCl)CCCl (configuration not stated) | > 100 µM (inactive) | > 100 µM (inactive) | > 100 µM (inactive) | > 100 µM (inactive) | > 100 µM (inactive) | > 100 µM (inactive) | > 100 µM (inactive) |  | > 100 µM (inactive) | > 100 µM (inactive) | > 100 µM (inactive) | > 100 µM (inactive) |  | > 100 µM (inactive) | > 100 µM (inactive) |  |  | > 100 µM (inactive) |  | > 100 µM (inactive) |
| Oc1cc(-c2ccc(Cl)cc2)nc2ncccc12 | 34.9 µM (inactive) |  | 11.5 µM (inactive) | 40.5 µM (inactive) | 44.6 µM (inactive) | 79.4 µM (inactive) | 56.6 µM (inactive) | > 100 µM (inactive) | 61.9 µM (inactive) | 21.7 µM (inactive) | 41.7 µM (inactive) |  |  | 61.9 µM (inactive) | 86.5 µM (inactive) | 64.1 µM (inactive) |  | 44.3 µM (inactive) |  | 68.1 µM (inactive) |
| CCC1NC(/N=N/c2ccc([N+](=O)[O-])cc2)(P(=O)(OC(C)C)OC(C)C)OC1=O (configuration not stated) | > 100 µM (inactive) | > 100 µM (inactive) | > 100 µM (inactive) | > 100 µM (inactive) |  | > 100 µM (inactive) | > 100 µM (inactive) |  | > 100 µM (inactive) | > 100 µM (inactive) | > 100 µM (inactive) | > 100 µM (inactive) |  | > 100 µM (inactive) | > 100 µM (inactive) | > 100 µM (inactive) |  | > 100 µM (inactive) | > 100 µM (inactive) | > 100 µM (inactive) |
| CC(C)(C)c1ccc2c(c1)OP1(Oc3cccc4cccnc34)(O2)Oc2ccc(C(C)(C)C)cc2O1 | 3.89 µM (inactive) | 3.27 µM (inactive) | 2.43 µM (inactive) |  | 8.49 µM (inactive) |  | 2.48 µM (inactive) |  | 12.2 µM (inactive) | 2.85 µM (inactive) | 0.701 µM (active) | 1.79 µM (inactive) | 3.04 µM (inactive) | 3.92 µM (inactive) | 3.05 µM (inactive) | 14.2 µM (inactive) | 3.37 µM (inactive) | 3.88 µM (inactive) | 1.76 µM (inactive) | 9.31 µM (inactive) |
| CC(C)(C)OC(=O)/C=C/C(=O)O/C=C/[N+](=O)[O-] | > 100 µM (inactive) | > 100 µM (inactive) | 14.4 µM (inactive) | > 100 µM (inactive) | > 100 µM (inactive) | > 100 µM (inactive) |  | > 100 µM (inactive) | > 100 µM (inactive) | > 100 µM (inactive) | > 100 µM (inactive) | > 100 µM (inactive) | > 100 µM (inactive) | > 100 µM (inactive) | > 100 µM (inactive) |  | > 100 µM (inactive) | > 100 µM (inactive) |  | > 100 µM (inactive) |
| Oc1[nH]c(Nc2cccc(CC(F)(F)F)c2)nc2ncnc1-2 | > 100 µM (inactive) | > 100 µM (inactive) |  | > 100 µM (inactive) | > 100 µM (inactive) | > 100 µM (inactive) | > 100 µM (inactive) | > 100 µM (inactive) | > 100 µM (inactive) | > 100 µM (inactive) | > 100 µM (inactive) | > 100 µM (inactive) | > 100 µM (inactive) | > 100 µM (inactive) | > 100 µM (inactive) | > 100 µM (inactive) |  | > 100 µM (inactive) | > 100 µM (inactive) | > 100 µM (inactive) |
| CCOC(=O)CC1(c2cccc3ccccc23)OC(=O)c2ccccc21 (configuration not stated) | 49.8 µM (inactive) | 21.3 µM (inactive) | 37.9 µM (inactive) |  | 67 µM (inactive) | 30.3 µM (inactive) | 40.4 µM (inactive) |  | 57.7 µM (inactive) | 30.4 µM (inactive) | 43.1 µM (inactive) | 33.6 µM (inactive) | 37.6 µM (inactive) | 45.5 µM (inactive) | 20.3 µM (inactive) | 50.9 µM (inactive) | 16.3 µM (inactive) | > 100 µM (inactive) | 22.1 µM (inactive) | 23.6 µM (inactive) |
| C=C1C(O)C2(O)OCC34C(CC5C(C)=CC(=O)C(O)C5(C)C23)OC(=O)C(OC(=O)C/C=C/CCCCCCCC)C14 (configuration not stated) | 0.0226 µM (active) |  | 0.02 µM (active) |  | 0.02 µM (active) |  |  |  | 0.0449 µM (active) | 0.0241 µM (active) | 0.02 µM (active) |  |  | 0.02 µM (active) | 0.02 µM (active) | 0.0212 µM (active) | 0.0223 µM (active) | 0.02 µM (active) | 0.02 µM (active) | 0.0254 µM (active) |
| O=S(O)CCCCCSSc1ccccc1 | 84.9 µM (inactive) |  | 15.3 µM (inactive) | 43.8 µM (inactive) |  | 85.7 µM (inactive) | > 100 µM (inactive) |  |  |  | 4.5 µM (inactive) | 43.7 µM (inactive) | 68.9 µM (inactive) |  | 52.5 µM (inactive) | > 100 µM (inactive) | 18.3 µM (inactive) |  | 14.1 µM (inactive) | 48.5 µM (inactive) |
| C[C@@H](NC(=O)[C@@H]1C[C@]1(C)COC(=O)c1cc([N+](=O)[O-])cc([N+](=O)[O-])c1)c1cccc2ccccc12 | 52.2 µM (inactive) | > 100 µM (inactive) | > 100 µM (inactive) | > 100 µM (inactive) | > 100 µM (inactive) | 33.7 µM (inactive) | > 100 µM (inactive) | > 100 µM (inactive) | > 100 µM (inactive) | > 100 µM (inactive) | > 100 µM (inactive) | 24.3 µM (inactive) | > 100 µM (inactive) | > 100 µM (inactive) | > 100 µM (inactive) | > 100 µM (inactive) | 12.6 µM (inactive) | 70.3 µM (inactive) |  | > 100 µM (inactive) |
